pIC50: −log10 of the molar value.
Molecular target: Ribosomal protein S6 kinase alpha-1 (Homo sapiens) (UniProt Q15418)
Assay: Inhibition of full length NanoLuc fused RSK1b (unknown origin) transfected in HEK293T cells using NanoBRET NanoGlo substrate incubated for 2 hrs in presence of tracer by NanoBRET assay

Sequence of Ribosomal protein S6 kinase alpha-1 (Homo sapiens) (Q15418 whole entry, looked up, the tested form may be a part): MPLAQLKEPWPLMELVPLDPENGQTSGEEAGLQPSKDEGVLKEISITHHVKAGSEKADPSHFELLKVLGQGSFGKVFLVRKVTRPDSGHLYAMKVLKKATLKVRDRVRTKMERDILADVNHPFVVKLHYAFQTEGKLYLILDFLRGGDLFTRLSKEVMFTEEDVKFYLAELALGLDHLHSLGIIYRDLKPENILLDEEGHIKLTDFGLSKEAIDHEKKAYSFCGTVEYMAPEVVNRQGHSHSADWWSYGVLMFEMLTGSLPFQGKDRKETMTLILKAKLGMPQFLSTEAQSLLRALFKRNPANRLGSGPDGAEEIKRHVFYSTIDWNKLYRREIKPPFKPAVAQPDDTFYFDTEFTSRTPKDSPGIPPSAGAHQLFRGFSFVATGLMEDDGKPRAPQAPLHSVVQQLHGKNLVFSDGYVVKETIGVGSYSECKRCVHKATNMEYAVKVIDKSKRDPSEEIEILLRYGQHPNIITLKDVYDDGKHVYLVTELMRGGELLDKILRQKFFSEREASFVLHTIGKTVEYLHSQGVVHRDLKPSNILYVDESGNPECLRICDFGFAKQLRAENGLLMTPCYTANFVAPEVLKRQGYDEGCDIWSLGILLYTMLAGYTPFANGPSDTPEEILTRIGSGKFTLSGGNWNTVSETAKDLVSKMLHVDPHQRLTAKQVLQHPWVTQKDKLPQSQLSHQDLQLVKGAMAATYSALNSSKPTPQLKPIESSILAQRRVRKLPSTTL

pIC50: < 4.35
Structure (SMILES): CNc1ncc2cc(-c3cc(F)ccc3F)c(=O)n(CCCCN)c2n1

Reference: BindingDB's records for doi:10.1016/j.ejmech.2023.115347 (Johann Wolfgang Goethe University, 2023)
